Key:
D1 protein Asn266->Asp = conditions: code loxlla; cited from earlier work
[1] = target: D1 protein Phe211→Ala Met214→Thr (Chlamydomonas reinhardtii, UniProt P07753, F211A/M214T); conditions: cited from earlier work
D1 protein A/a251->lIe = D1 protein A/a251->lIe (Chlamydomonas reinhardtii, UniProt P07753, A251I); conditions: cited from earlier work
[2] = target: T1, thylakoids from Spinacia oleracea (Spinacia oleracea, UniProt P69560); experiment: Biosensor fluorescence response (Tables B and C); format: biochemical; conditions: for inhibition at 0.01 µM: control printed as 100
T1 construct: biomediator based on thylakoids from Spinacia oleracea; from tissue; host or cells: thylakoids isolated from mature spinach plants
Text: (§1) According to a specially advantageous embodiment, Bioherbi is an equipment weighing in all about […], occupies a space of about 30x30x20 cm and is constituted as reported below. • a) flow cell wherein the biomediator is immobilized. […] The black plastic material allows to fit the biomediator in the dark. The biomediator in entrapped in the inner section. The surface tightness of the reading hole is obtained using a glass cover plate for microscopy. The inner cell, where the mediator is entrapped, has un volume from 50 to 300 µl. • b) a peristaltic pump is the hydraulic part to withdraw the sample containing the herbicide to be analyzed, which moves said sample through the flow cell and brings it in close contact with the biomediator. According to a specially advantageous embodiment a single block is used as holder for the herbicide and peristaltic pump. The flow can be varied from 0,2 to 2 ml/min depending on the sample. Higher flow increases the sensitivity to the herbicide because the latter interacts with a higher number of bonding sites on PS II. By laboratory tests it was found out that, when the solution of the herbicide flows, the efficiency of the fluorescence measure could be impaired by light scattering effects. Accordingly it is preferred to carry out the measure in stopped-flow conditions using a flow switch. The biomediator immobilized within the flow cell, following each measure, is washed and regenerated by a suitable buffer solution. A valve allows to forward alternatively the flow of the buffer or the solution containing the herbicide to be analyzed. • c) optical fiber fluorescence sensor closely connected to the flow cell. The fluorescence emitted from green plants depends on the photosynthetic activity. Recent studies on fluorescence measuring techniques made this feature a very important tool in the basic and applied research about the plant physiology (D Lazar, 1999, Biochim Biophys Acta 1-28). Bioherbi analyzer measures the fluorescence emitted from photosynthetic complexes and modifications determined by the presence of herbicide. The sensor is tightly connected to the flow cell to avoid any infiltration of external light and provides the excitation light detecting the fluorescence signal. The excitation light is emitted from an emitting diode at a very narrow wavelength of about 650 nm, which is quickly absorbed by the Photosystem II of the photosynthetic organisms and has the advantage in that it provides light with reduced heating and emits the signal very quickly. A "feedback" optical circuit controls and adjusts the variations of the intensity of the emitted light also resulting from variations of ambient temperature. The analyzer consists of an high capacity photodiode associated to an amplifier. The optical system responds perfectly to the fluorescence emission wavelength of 700 nm and stops the reflection light of lower wavelength resulting from the emission light. The sensor is connected to the control computer by an about 30 cm long fiber. According to a variation of the biosensor we used a more complex fluorescence system, adjustable as the excitation light in order to allow the use, as biomediator, of photosynthetic organisms requiring specific wavelengths. • e) a control and data processing computer. […] The concentration of the herbicide is proportional to the area over the fluorescence curve (Table 1A-B); the inhibition of this area is closely related to the washing times whereby it is possible to determinate the concentration of the herbicide also using the washing time required to obtain an almost complete inhibition of the area (see Table 1C). The fluorescence signal received by the sensor is processed within the control chamber by transduction systems of the signal and analog-to-digital converters. The system is computerized with a very sophisticated microprocessor able to process the data of the fluorescence signal. […]

Vicia faba thylakoids = Vicia faba thylakoids (Vicia faba, UniProt P13910); experiment: Biosensor fluorescence response, immobilized thylakoids (Table A); format: biochemical; conditions: contact time 20 min
Text: as §1

I1e229→Met = conditions: R. capsulatus; cited from earlier work
PhC2,6―Pro = conditions: cited from earlier work
Thr226->Met = conditions: cited from earlier work
Gly228->Arg = conditions: cited from earlier work
PS II = PS II treated with CdCl2, refrigeration at 5°C, flow 0,2-2,0 ml/m
Text: To further increase the stability of the biomediator the usefulness of a system for the refrigeration of the solution containing herbicide forwarded into the measuring cell experimentally was observed.

[3] = test system: thylakoids from Amaranthus retroflexus, Mutant; format: biochemical; conditions: herbicide concentration 10^-6 M
Tyr222->Phe = conditions: code T4; cited from earlier work
I1e229->Cys = conditions: cited from earlier work
I1e228->Leu = conditions: cited from earlier work
Gly228->Val = conditions: cited from earlier work
I1e229->Ala = conditions: cited from earlier work
Phe216->Thr = conditions: cited from earlier work
D1 protein Phe255->Tyr = D1 protein Phe255->Tyr (Chlamydomonas reinhardtii, UniProt P07753, F255Y); conditions: code Ar207+; cited from earlier work
Phe216->Leu = conditions: cited from earlier work
Thr226->Ala = conditions: cited from earlier work
[4] = test system: PS II isolated from thermophilic cyanobacteria; conditions: immobilized PS II, Clark electrode (Koblizek et al.); cited from earlier work
Phe216→Val = conditions: cited from earlier work
[5] = test system: thylakoids from Amaranthus retroflexus, Wild-type; experiment: Biosensor fluorescence response (Table D), wild-type biomediator; format: biochemical; conditions: herbicide concentration 10^-6 M
monoclonal antibodies = conditions: ELISA (Schneider et al. 1994); cited from earlier work
[6] = Table B, first column Diuron 10^-8 M, contact time 15 min
[7] = Table B, second column Diuron 10^-8 M, contact time 15 min
[8] = Diuron 10^-9 M, after regeneration

**Q.** Which results are given for `CN(C)C(=O)Nc1ccc(Cl)c(Cl)c1` [Diuron]?
**A.** Supersensitivity R/S (D1 protein Asn266->Asp): Diuron 0,7; Supersensitivity R/S [1]: Diuron 0,8; Supersensitivity R/S (D1 protein A/a251->lIe): Diuron 0,6; Area [2, 6]: 12700; Fv/Fm [2, 6]: 0,768; inhibition at 0.01 µM [2, 6]: 88%; Area [2, 7]: 10400; Fv/Fm [2, 7]: 0,756; inhibition at 0.01 µM [2, 7]: 71%; Area ([2]; Table C, Diuron 10^-7M, 10 min): 7830; Fv/Fm ([2]; Table C, Diuron 10^-7M, 10 min): 0,746; inhibition at 0.1 µM ([2]; Table C, Diuron 10^-7M, 10 min): 32%; Area ([2]; Table C, Diuron 10^-7M, 40 min): 6120; Fv/Fm ([2]; Table C, Diuron 10^-7M, 40 min): 0,711; inhibition at 0.1 µM ([2]; Table C, Diuron 10^-7M, 40 min): 47%; Area ([2]; Table C, Diuron 10^-7M, 50 min): 5090; Fv/Fm ([2]; Table C, Diuron 10^-7M, 50 min): 0,700; inhibition at 0.1 µM ([2]; Table C, Diuron 10^-7M, 50 min): 56%; Area ([2]; Table C, Diuron 10^-7M, 60 min): 4160; Fv/Fm ([2]; Table C, Diuron 10^-7M, 60 min): 0,684; inhibition at 0.1 µM ([2]; Table C, Diuron 10^-7M, 60 min): 64%; Area (Vicia faba thylakoids; Diuron 10^-6 M, area over the fluorescence curve): 10300; inhibition at 1 µM (Vicia faba thylakoids; Diuron 10^-6 M, inhibition of area vs control): 93%; Fv/Fm (Vicia faba thylakoids; Diuron 10^-6 M, mean of at least three measures): 0,540; Area (Vicia faba thylakoids; [8]): 4030; Fv/Fm (Vicia faba thylakoids; [8]): 0,475; inhibition at 0.001 µM (Vicia faba thylakoids; [8]): 60%; Resistance R/S (I1e229→Met): Diuron 1; Resistance R/S (PhC2,6―Pro): patron 1; Resistance R/S (Thr226->Met): Diuron 1; Resistance R/S (Gly228->Arg): Diuron 1; sensitivity (concentration) (PS II): lower than nanomolar; Area % inhibition Mutant [3]: 96%; Supersensitivity R/S (Tyr222->Phe): Diuron <0,0001; Resistance R/S (I1e229->Cys): Diuron 1; Resistance R/S (I1e228->Leu): Diuron 1; Resistance R/S (Gly228->Val): Diuron 1; Resistance R/S (I1e229->Ala): Diuron 1; Resistance R/S (Phe216->Thr): Diuron 1; Supersensitivity R/S (D1 protein Phe255->Tyr): Diuron 0,6-0,8; Resistance R/S (Phe216->Leu): Diuron 1; Resistance R/S (Thr226->Ala): Diuron 1; sensitivity [4]: 10^-10 mol/l; Resistance R/S (Phe216→Val): Diuron 1; Area % inhibition Wild-type [5]: 99%; sensitivity (monoclonal antibodies): 200 pM

From EP1134585B1, “Biosensor and method for the monitoring of herbicides” (CONSIGLIO NAZIONALE DELLE RICERCHE, priority 2000, dated 2001)
